Results published in US4503256A, “Phlorophenone derivatives, processes for preparing such compounds, uses and pharmaceutical compositions of phlorophenone compounds” (Noristan Limited, priority 1981, dated 1985).
≈ marks a conversion by molar mass, not a printed value. Where two headings read alike, the source gives them in different places.

Legend:
[1] = tested on: S. AUREUS; test: Minimum Inhibitory Concentration (MIC), broth dilution in Brain Heart Infusion broth; assay type: cell-based, Staphylococcus aureus; conditions: Staphylococcus aureus, read-out: MIC S. AUREUS
Description: (§1) For testing against the bacteria, concentrations of each of the compounds were prepared in Brain Heart Infusion broth (Oxoid CM225) in two-fold steps from 1000 μg/ml to 1 μg/ml. Solutions containing 1000 μg/ml were prepared by dissolving 20 mg of each compound in 5 ml of acetone and this was then made up to 20 ml with Brain Heart Infusion Broth. Serial two-fold dilutions were then prepared in the broth down to 1 μg/ml.
(§2) For testing against the bacteria each of the prepared test concentrations and acetone controls prepared in Brain Heart Infusion were dispensed in 2 ml amounts for each organism. A growth control of 2 ml of Brain Heart Infusion was included in each series.
(§3) To each of the prepared sets of concentrations of each compound were added 0.1 ml aliquots of the organism suspensions prepared as described previously. All the bottles were incubated at 37° C. for 48 hours in the case of the bacteria and from 5 to 15 days for the fungi (until growth controls had grown in each case).
(§4) After incubation the broths were examined for evidence of growth. The lowest concentration of the test compound which prevented growth was recorded as the Minimum Inhibitory Concentration (MIC).

[2] = tested on: St. PYOGENES; test: as above; assay type: cell-based; conditions: Streptococcus pyogenes, 37° C., 48 hours
Description: as §1, §2, §3, §4

[3] = tested on: C. ALBICANS; test: Minimum Inhibitory Concentration (MIC), dilution in Sabouraud liquid medium; assay type: cell-based; conditions: Candida albicans, 37° C., 5 to 15 days
Description: (§5) For testing against the fungi, concentrations of each of the compounds were prepared in Sabouraud liquid medium in two-fold steps from 100 μg/ml to 0.1 μg/ml. 500 μg/ml solutions were prepared by dissolving 10 mg in 5 ml of acetone, made up to 20 ml with Sabouraud liquid medium. 4 ml of the 500 μg/ml concentration was then made up to 20 ml with Sabouraud liquid medium to give a concentration of 100 μg/ml. Serial two-fold dilutions were prepared from this in the same medium down to 0.1 μg/ml.
(§6) For the fungi the same procedure was followed using the concentrations made up in Sabouraud liquid medium. The Nystatin concentrations were also dispensed in 2 ml amounts for each organism. Growth controls of Sabouraud liquid medium were included in each series.
as §3, §4

[4] = tested on: Mic. CANIS; test: as above; assay type: cell-based; conditions: Microsporum canis, 37° C., 5 to 15 days
Description: as §5, §6, §3, §4

[5] = tested on: Sp. SCHENKII; test: as above; assay type: cell-based; conditions: 37° C., 5 to 15 days
Description: as §5, §6, §3, §4

[6] = tested on: Tr. MENTAGROPHYTES; test: as above; assay type: cell-based; conditions: Trichophyton mentagrophytes, 37° C., 5 to 15 days
Description: as §5, §6, §3, §4

[7] = tested on: Tr. RUBRUM; test: as above; assay type: cell-based; conditions: Trichophyton rubrum, 37° C., 5 to 15 days
Description: as §5, §6, §3, §4

[8] = Acute oral toxicity in CD-1 mice; assay type: in vivo; conditions: mouse, in vivo, male and female CD-1 mice, dose levels 1000, 464, 215 and 100 mg/kg, 7 days observation
Description: Male and female CD-1 mice were fasted for 18 hours prior to the experiment, but water was available ad libitum except during the observation period. The test compounds were prepared in 1% tragacanth and were administered orally to groups of two male and two female mice.
All compounds were tested at dose levels of 1000, 464, 215 and 100 mg/kg. Immediately after dosing, the mice were replaced in their "home" cage and were observed daily for 7 days post dose and any mortalities recorded.
The acute toxicities, as determined by the above procedure, of a number of representative compounds are given in the accompanying table.

[9] = 37° C., 48 hours, Brain Heart Infusion broth

Structure (SMILES)	MIC [1, 9] [µg/mL]	MIC [2] [µg/mL]	MIC [3] [µg/mL]	MIC [4] [µg/mL]	MIC [5] [µg/mL]	MIC [6] [µg/mL]	MIC [7] [µg/mL]	LD50 at 168 h [8] [mg/kg]	MIC ([1]; 48 h) [µg/mL]
CC(C)CCC(=O)c1c(O)cc(O)c(Cc2ccccc2)c1O [Compound 25, 2-Isocaproyl-4-benzylphloroglucinol]	16 (≈ 50.9 µM)	8 (≈ 25.4 µM)	13 (≈ 41.4 µM)	6 (≈ 19.1 µM)	25 (≈ 79.5 µM)	3 (≈ 9.54 µM)	6 (≈ 19.1 µM)	1000	
C=CCc1c(O)cc(O)c(C(=O)Cc2ccc(Cl)cc2)c1O [Compound 23]	32 (≈ 100 µM)	8 (≈ 25.1 µM)	13 (≈ 40.8 µM)	6 (≈ 18.8 µM)	25 (≈ 78.4 µM)	13 (≈ 40.8 µM)	13 (≈ 40.8 µM)	> 1000	
CCCC(=O)c1c(O)cc(O)c(Cc2ccccc2)c1O [Compound 24, 2-Butyryl-4-benzylphloroglucinol]	16 (≈ 55.9 µM)	8 (≈ 27.9 µM)	25 (≈ 87.3 µM)	13 (≈ 45.4 µM)	25 (≈ 87.3 µM)	13 (≈ 45.4 µM)	6 (≈ 21 µM)	1000	
CC(C)CCC(=O)c1c(O)cc2c(c1O)CCC(C)(C)O2 [Compound 33, 5,7-dihydroxy-2,2-dimethyl-6-isocaproyl chroman]	125 (≈ 428 µM)	64 (≈ 219 µM)	100 (≈ 342 µM)	100 (≈ 342 µM)	> 100	> 100	25 (≈ 85.5 µM)	> 1000	
CCCC(=O)c1c(O)cc(O)c(C(=O)CCC)c1O [Compound 1, 2,4-Dibutyrylphloroglucinol]	2 (≈ 7.51 µM)	1 (≈ 3.76 µM)	13 (≈ 48.8 µM)	3 (≈ 11.3 µM)	6 (≈ 22.5 µM)	6 (≈ 22.5 µM)	6 (≈ 22.5 µM)	> 1000	
C=CCc1c(O)cc(O)c(C(=O)C2CCCCC2)c1O [Compound 20]	32 (≈ 116 µM)	8 (≈ 29 µM)	25 (≈ 90.5 µM)	13 (≈ 47 µM)	25 (≈ 90.5 µM)	13 (≈ 47 µM)	25 (≈ 90.5 µM)	> 1000	
CCCC(=O)c1c(O)cc(O)c2c1OC(C)(C)CC2 [Compound 30, 5,7-dihydroxy-2,2-dimethyl-8-butyryl chroman]	32 (≈ 121 µM)	32 (≈ 121 µM)	25 (≈ 94.6 µM)	6 (≈ 22.7 µM)	25 (≈ 94.6 µM)	13 (≈ 49.2 µM)	13 (≈ 49.2 µM)	> 1000	
CCCCCC(=O)c1c(O)cc(O)c(CC=C(C)C)c1O [Compound 5, 2-Caproyl-4-(3-methylbuten-2-yl)phloroglucinol]	8 (≈ 27.4 µM)	4 (≈ 13.7 µM)	13 (≈ 44.5 µM)	1.6 (≈ 5.47 µM)	13 (≈ 44.5 µM)	6 (≈ 20.5 µM)	3 (≈ 10.3 µM)	> 1000	
CCC(=O)c1c(O)cc(O)c(CC=C(C)C)c1O [Compound 2, 2-Propionyl-4-(3-methylbuten-2-yl)phloroglucinol]	125 (≈ 499 µM)	8 (≈ 32 µM)	50 (≈ 200 µM)	13 (≈ 51.9 µM)	25 (≈ 99.9 µM)	25 (≈ 99.9 µM)	13 (≈ 51.9 µM)	> 1000	
CCCC(=O)c1c(O)c2c(c(C(=O)CCC)c1O)OC(C)C2 (stereo not drawn) [Compound 37, 4,6-dihydroxy-5,7-dibutyryl-2-methyl-2,3-dihydrobenzofuran]	125 (≈ 408 µM)	32 (≈ 104 µM)	> 100	> 100	> 100	> 100	100 (≈ 326 µM)	> 215	
CC(C)=CCc1c(O)cc(O)c(C(=O)C2CCCCC2)c1O [Compound 8, 2-Hexahydrobenzoyl-4-(3-methylbuten-2-yl)phloroglucinol]	32 (≈ 105 µM)	8 (≈ 26.3 µM)	13 (≈ 42.7 µM)	6 (≈ 19.7 µM)	13 (≈ 42.7 µM)	6 (≈ 19.7 µM)	6 (≈ 19.7 µM)	> 1000	
CC(C)=CCc1c(O)cc(O)c(C(=O)C2CCCC2)c1O [Compound 9, 2-(2-Cyclopentyl-1-oxo)-4-(3-methylbuten-2-yl)phloroglucinol]		8 (≈ 27.6 µM)	6.2 (≈ 21.4 µM)	1.6 (≈ 5.51 µM)	6.2 (≈ 21.4 µM)	6.2 (≈ 21.4 µM)	3.1 (≈ 10.7 µM)	< 100	32 (≈ 110 µM)
